In brackets after ≈: the same amount, converted by molar mass. Values belong to the compound of their own block, whether it stands above or below them.
Experiments:
[1] = system: Proteus mirabilis; experiment: Compound was tested for antibacterial activity against gram negative Proteus mirabilis JY-10; assay type: functional; conditions: Proteus mirabilis; read-out: MIC
[2] = system: Proteus vulgaris; experiment: Compound was tested for antibacterial activity against gram negative Proteus vulgaris No.33; assay type: functional; conditions: Proteus vulgaris; read-out: MIC
[3] = system: Pseudomonas aeruginosa; experiment: Compound was tested for antibacterial activity against gram negative Pseudomonas aeruginosa K-13; assay type: functional; conditions: Pseudomonas aeruginosa; read-out: MIC
[4] = system: Pseudomonas aeruginosa; experiment: Compound was tested for antibacterial activity against gram negative Pseudomonas aeruginosa PAO1; assay type: functional; conditions: Pseudomonas aeruginosa; read-out: MIC
[5] = system: Escherichia coli; experiment: Compound was tested for antibacterial activity against gram negative Escherichia coli CSH2/RK1; assay type: functional; conditions: Escherichia coli; read-out: MIC
[6] = system: Klebsiella oxytoca; experiment: Compound was tested for antibacterial activity against gram negative Klebsiella oxytoca GN 10650; assay type: functional; conditions: Klebsiella oxytoca; read-out: MIC
[7] = system: Staphylococcus aureus; experiment: Compound was tested for antibacterial activity against gram positive Staphylococcus aureus JS-1; assay type: functional; conditions: Staphylococcus aureus; read-out: MIC
[8] = system: Enterococcus faecalis; experiment: Compound was tested for antibacterial activity against gram positive Enterococcus faecalis 1373; assay type: functional; conditions: Enterococcus faecalis; read-out: MIC
[9] = system: Streptococcus pyogenes; experiment: Compound was tested for antibacterial activity against gram positive Streptococcus pyogenes cook; conditions: Streptococcus pyogenes; read-out: MIC
[10] = system: Proteus vulgaris; experiment: Compound was tested for antibacterial activity against gram negative Proteus vulgaris KS-134; assay type: functional; conditions: Proteus vulgaris; read-out: MIC
[11] = system: Pseudomonas aeruginosa; experiment: Compound was tested for antibacterial activity against gram negative Pseudomonas aeruginosa KP-254; assay type: functional; conditions: Pseudomonas aeruginosa; read-out: MIC
[12] = system: Escherichia coli; experiment: Compound was tested for antibacterial activity against gram negative Escherichia coli CSH2/RE45; assay type: functional; conditions: Escherichia coli; read-out: MIC
[13] = system: Klebsiella pneumoniae; experiment: Compound was tested for antibacterial activity against gram negative Klebsiella pneumoniae KC-1; assay type: functional; conditions: Klebsiella pneumoniae; read-out: MIC
[14] = system: Staphylococcus aureus; experiment: Compound was tested for antibacterial activity against gram positive Staphylococcus aureus KP-90-3; assay type: functional; conditions: Staphylococcus aureus; read-out: MIC
[15] = system: Serratia marcescens; experiment: Compound was tested for antibacterial activity against gram negative Serratia marcescens No.16-2; assay type: functional; conditions: Serratia marcescens; read-out: MIC
[16] = system: Citrobacter freundii; experiment: Compound was tested for antibacterial activity against gram negative Citrobacter freundii KP-29; assay type: functional; conditions: Citrobacter freundii; read-out: MIC
[17] = system: Enterobacter cloacae; experiment: Compound was tested for antibacterial activity against gram negative Enterobacter cloacae Nek39; assay type: functional; conditions: Enterobacter cloacae; read-out: MIC
[18] = system: Staphylococcus aureus; experiment: Compound was tested for antibacterial activity against gram positive Staphylococcus aureus smith; assay type: functional
[19] = system: Citrobacter freundii; experiment: Compound was tested for antibacterial activity against gram negative Citrobacter freundii No.7; assay type: functional; conditions: Citrobacter freundii; read-out: MIC
[20] = system: Burkholderia cepacia; experiment: Compound was tested for antibacterial activity against gram negative Burkholderia cepacia 23; assay type: functional; conditions: Burkholderia cepacia; read-out: MIC
[21] = system: Acinetobacter calcoaceticus; experiment: Compound was tested for antibacterial activity against gram negative Acinetobacter calcoaceticus No.4; assay type: functional; conditions: Acinetobacter calcoaceticus; read-out: MIC
[22] = system: Escherichia coli; experiment: Compound was tested for antibacterial activity against gram negative Escherichia coli ML4707; assay type: functional; conditions: Escherichia coli; read-out: MIC
[23] = system: Escherichia coli; experiment: Compound was tested for antibacterial activity against gram negative Escherichia coli NIHJ JC-2; assay type: functional; conditions: Escherichia coli; read-out: MIC
[24] = system: Pseudomonas aeruginosa; experiment: Compound was tested for antibacterial activity against gram negative Pseudomonas aeruginosa AK109; assay type: functional; conditions: Pseudomonas aeruginosa; read-out: MIC
[25] = system: Klebsiella pneumoniae; experiment: Compound was tested for antibacterial activity against gram negative Klebsiella pneumoniae No.42; assay type: functional; conditions: Klebsiella pneumoniae; read-out: MIC
[26] = system: Staphylococcus aureus; experiment: Compound was tested for antibacterial activity against gram positive Staphylococcus aureus FDA 209P JC-1; assay type: functional; conditions: Staphylococcus aureus; read-out: MIC

SMILES: CC1COc2c(N3CCN(C)CC3)c(F)cc3c(=O)c(C(=O)O)cn1c23 (stereo not given) [OFLOXACIN]
MIC [1]: 0.05 µg/mL (≈ 0.138 µM)
MIC [2]: 0.05 µg/mL (≈ 0.138 µM)
MIC [3]: 12.5 µg/mL (≈ 34.6 µM)
MIC [4]: 1.56 µg/mL (≈ 4.32 µM)
MIC [5]: 0.78 µg/mL (≈ 2.16 µM)
MIC [6]: 0.1 µg/mL (≈ 0.277 µM)
MIC [7]: 0.39 µg/mL (≈ 1.08 µM)
MIC [8]: 1.56 µg/mL (≈ 4.32 µM)
MIC [9]: 0.78 µg/mL (≈ 2.16 µM)
MIC [10]: 50 µg/mL (≈ 138 µM)
MIC [11]: > 100 µg/mL
MIC [12]: 0.78 µg/mL (≈ 2.16 µM)
MIC [13]: 0.05 µg/mL (≈ 0.138 µM)
MIC [14]: 25 µg/mL (≈ 69.2 µM)
MIC [15]: 0.78 µg/mL (≈ 2.16 µM)
MIC [16]: 50 µg/mL (≈ 138 µM)
MIC [17]: 0.39 µg/mL (≈ 1.08 µM)
MIC [18]: 0.2 µg/mL (≈ 0.553 µM)
MIC [19]: 0.39 µg/mL (≈ 1.08 µM)
MIC [20]: 3.13 µg/mL (≈ 8.66 µM)
MIC [21]: 0.78 µg/mL (≈ 2.16 µM)
MIC [22]: 0.025 µg/mL (≈ 0.0692 µM)
MIC [23]: 0.1 µg/mL (≈ 0.277 µM)
MIC [24]: 1.56 µg/mL (≈ 4.32 µM)
MIC [25]: 0.2 µg/mL (≈ 0.553 µM)
MIC [26]: 0.39 µg/mL (≈ 1.08 µM)

SMILES: COc1c(N2C[C@@H](CO)[C@H](C(F)(F)F)C2)c(F)cc2c(=O)c(C(=O)O)cn(C3CC3)c12
MIC [1]: 0.2 µg/mL (≈ 0.45 µM)
MIC [2]: 0.78 µg/mL (≈ 1.76 µM)
MIC [3]: 25 µg/mL (≈ 56.3 µM)
MIC [4]: 3.13 µg/mL (≈ 7.04 µM)
MIC [5]: 6.25 µg/mL (≈ 14.1 µM)
MIC [6]: 1.56 µg/mL (≈ 3.51 µM)
MIC [7]: 0.013 µg/mL (≈ 0.0293 µM)
MIC [8]: 0.2 µg/mL (≈ 0.45 µM)
MIC [9]: 0.2 µg/mL (≈ 0.45 µM)
MIC [10]: 100 µg/mL (≈ 225 µM)
MIC [11]: > 100 µg/mL
MIC [12]: 6.25 µg/mL (≈ 14.1 µM)
MIC [13]: 1.56 µg/mL (≈ 3.51 µM)
MIC [14]: 0.78 µg/mL (≈ 1.76 µM)
MIC [15]: 6.25 µg/mL (≈ 14.1 µM)
MIC [16]: > 100 µg/mL
MIC [17]: 3.13 µg/mL (≈ 7.04 µM)
MIC [18]: ≤ 0.006 µg/mL
MIC [19]: 12.5 µg/mL (≈ 28.1 µM)
MIC [20]: 3.13 µg/mL (≈ 7.04 µM)
MIC [21]: 0.78 µg/mL (≈ 1.76 µM)
MIC [22]: 0.2 µg/mL (≈ 0.45 µM)
MIC [23]: 0.39 µg/mL (≈ 0.878 µM)
MIC [24]: 6.25 µg/mL (≈ 14.1 µM)
MIC [25]: 3.13 µg/mL (≈ 7.04 µM)
MIC [26]: 0.025 µg/mL (≈ 0.0563 µM)

Continued by falling MIC [1], values first:

MIC [1]: 0.2 µg/mL
MIC [2]: 0.39 µg/mL
MIC [3]: 25 µg/mL
MIC [4]: 6.25 µg/mL
MIC [5]: 3.13 µg/mL
MIC [6]: 0.39 µg/mL
MIC [7]: 0.025 µg/mL
MIC [8]: 0.2 µg/mL
MIC [9]: 0.1 µg/mL
MIC [10]: 100 µg/mL
MIC [11]: > 100 µg/mL
MIC [12]: 3.13 µg/mL
MIC [13]: 0.2 µg/mL
MIC [14]: 1.56 µg/mL
MIC [15]: 3.13 µg/mL
MIC [16]: 100 µg/mL
MIC [17]: 1.56 µg/mL
MIC [18]: ≤ 0.006 µg/mL
MIC [19]: 3.13 µg/mL
MIC [20]: 1.56 µg/mL
MIC [21]: 0.2 µg/mL
MIC [22]: ≤ 0.006 µg/mL
MIC [23]: 0.39 µg/mL
MIC [24]: 6.25 µg/mL
MIC [25]: 0.39 µg/mL
MIC [26]: 0.05 µg/mL
SMILES: COc1c(N2CC[C@@](N)(C(F)(F)F)C2)c(F)cc2c(=O)c(C(=O)O)cn(C3CC3)c12.Cl

MIC [1]: 0.2 µg/mL
MIC [2]: 0.39 µg/mL
MIC [3]: 50 µg/mL
MIC [4]: 6.25 µg/mL
MIC [5]: 3.13 µg/mL
MIC [6]: 0.2 µg/mL
MIC [7]: 0.013 µg/mL
MIC [8]: 0.05 µg/mL
MIC [9]: 0.025 µg/mL
MIC [10]: 50 µg/mL
MIC [11]: > 100 µg/mL
MIC [12]: 1.56 µg/mL
MIC [13]: 0.1 µg/mL
MIC [14]: 0.78 µg/mL
MIC [15]: 0.78 µg/mL
MIC [16]: 50 µg/mL
MIC [17]: 1.56 µg/mL
MIC [18]: ≤ 0.006 µg/mL
MIC [19]: 1.56 µg/mL
MIC [20]: 1.56 µg/mL
MIC [21]: 0.2 µg/mL
MIC [22]: 0.05 µg/mL
MIC [23]: 0.2 µg/mL
MIC [24]: 6.25 µg/mL
MIC [25]: 0.39 µg/mL
MIC [26]: 0.05 µg/mL
SMILES: COc1c(N2C[C@H](CN)[C@@H](C(F)(F)F)C2)c(F)cc2c(=O)c(C(=O)O)cn(C3CC3)c12.Cl

MIC [1]: 0.05 µg/mL
MIC [2]: 0.1 µg/mL
MIC [3]: 6.25 µg/mL
MIC [4]: 0.78 µg/mL
MIC [5]: 0.39 µg/mL
MIC [6]: 0.1 µg/mL
MIC [7]: ≤ 0.006 µg/mL
MIC [8]: 0.05 µg/mL
MIC [9]: ≤ 0.006 µg/mL
MIC [10]: 50 µg/mL
MIC [11]: 100 µg/mL
MIC [12]: 0.39 µg/mL
MIC [13]: 0.1 µg/mL
MIC [14]: 0.2 µg/mL
MIC [15]: 0.39 µg/mL
MIC [16]: 12.5 µg/mL
MIC [17]: 0.39 µg/mL
MIC [18]: ≤ 0.006 µg/mL
MIC [19]: 0.39 µg/mL
MIC [20]: 1.56 µg/mL
MIC [21]: 0.2 µg/mL
MIC [22]: 0.025 µg/mL
MIC [23]: 0.05 µg/mL
MIC [24]: 0.78 µg/mL
MIC [25]: 0.1 µg/mL
MIC [26]: 0.013 µg/mL
SMILES: COc1c(N2C[C@@H](CN)[C@H](C)C2)c(F)cc2c(=O)c(C(=O)O)cn(C3CC3)c12.Cl

From ChEMBL document CHEMBL1130625, “Synthesis and antibacterial activity of novel 7-(3-substituted-3 or 4-trifluoromethyl-1-pyrrolidinyl)-8-methoxyfluoroquinolones” (1998)
